Measured values: US20220000841A1, “INHIBITORS OF METALLO-BETA-LACTAMASES” (CENTRE NATIONAL DE LA RECHERCHE SCIENTIFIQUE, priority 2018, published 2022)
Where two headings read alike, the source gives them in different places.

Legend:
VIM-2 = VIM-2 (Escherichia coli, UniProt Q5U7L7); assay: Enzymatic assay for determination of inhibition constants, reporter substrate method, purified VIM-2; assay type: biochemical;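 further: purified VIM-2 hydrolysing a reporter substrate (imipenem, meropenem, cefotaxime or nitrocefin), reaction rate read as absorbance change, HEPES 50 mM at pH 7.5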
Protocol: (§3) The reaction rate was measured as the variation of absorbance observed upon substrate hydrolysis in a UV-Vis spectrophotometer or microplate reader at a wavelength of 300 nm (imipenem, meropenem), 260 nm (cefotaxime) or 482 nm (nitrocefin) in 50 mM HEPES buffer (pH 7.5) and in the presence of a purified MBL enzyme (such as VIM-1, VIM-2, VIM-4, NDM-1 and IMP-1, at a final concentration ranging 1-70 nM).
(§4) The inhibition constants (Ki) were determined on the basis of a model of competitive inhibition by analyzing the dependence of the ratio v0/vi (v0, hydrolysis velocity in the absence of inhibitor; vi, hydrolysis velocity in the presence of inhibitor) as a function of [I] as already described [Docquier J. D., Lamotte-Brasseur J., Galleni M., Amicosante G., Frère J. M., Rossolini G. M. (2003) J. Antimicrob. […] The slope of the plot of v0/vi vs [I], which corresponds to Km^S/(Km^S+[S])Ki (where Km^S is the Km value of the reporter substrate and [S] its concentration in the reaction mixture) and allowed the calculation of the Ki value. Alternatively, a Dixon plot analysis was carried out, by measuring the initial hydrolysis rates in the presence of variable concentrations of inhibitor and substrate.

[1] = Cell membrane integrity assay, LDH release, compound cytotoxicity; assay type: cell-based; settings: human, HeLa cells, 0.001 to 1.2 mM, read-out: IC50, compound concentration inducing 50% cytotoxicity (LDH release)
Protocol: Selected compounds were tested for their ability to induce the lysis of eukaryotic cells by measuring the release of lactate dehydrogenase enzyme (LDH) from HeLa cells, after incubating such cells for 24 hours (37° C., 5% CO2) in Dulbecco's modified Eagle medium supplemented with 10% fetal bovine serum, 4.5 mg/ml glucose and 2 mM L-glutamine in the absence and presence of the compound at concentrations ranging from 0.001 to 1.2 mM. LDH activity was determined using commercial kits (such as the CytoTox 96® Non-Radioactive Cytotoxicity Assay, Promega, Madison, Wis., U.S.A.) in the samples, containing HeLa cells incubated with the various concentrations of the assayed compound or with the solvent or buffer used to resuspend such compounds (vehicle control).
Further controls included samples containing the medium only (medium control) or in which cell lysis was induced by the addition of 9% Triton X-100 (maximum LDH release control). The percentage of cytotoxicity was computed as 100×(Sample LDH release)/(maximum LDH release). The variation of the percentage of cytotoxicity is usually dependent on the compound concentration and allowed to compute an IC50 value, corresponding to the compound concentration inducing 50% cytoxicity.

VIM-1 = VIM-1 (Pseudomonas aeruginosa, UniProt A0A0F7KYQ8); assay: Enzymatic assay for determination of inhibition constants, reporter substrate method, purified VIM-1; assay type: biochemical; settings: isolated MBL, competitive inhibition model;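 further: initial hydrolysis rates of a reporter β-lactam (imipenem, meropenem, cefotaxime or nitrocefin) followed by absorbance change, purified enzyme at 1–70 nM in 50 mM HEPES pH 7.5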
IMP-1 = IMP-1 (Serratia marcescens, UniProt P52699); assay: Enzymatic assay for determination of inhibition constants, reporter substrate method, purified IMP-1; assay type: biochemical; settings: isolated MBL, competitive inhibition model;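 further: purified IMP-1 (1-70 nM) hydrolysing a reporter substrate, initial rates followed as absorbance change at 260, 300 or 482 nm in 50 mM HEPES pH 7.5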
Protocol: as §3, §4

NDM-1 = NDM-1 (Klebsiella pneumoniae, UniProt C7C422); assay: Enzymatic assay for determination of inhibition constants, reporter substrate method, purified NDM-1; assay type: biochemical; settings: isolated MBL, competitive inhibition model;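 further: purified enzyme activity followed as absorbance change from reporter substrate hydrolysis on a UV-Vis spectrophotometer or plate reader, 50 mM HEPES pH 7.5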
Protocol: as §3, §4

[2] = system: E. coli AS19 [pLBII-VIM2]; assay: microbe, parasite or virus in culture; assay type: cell-based, Escherichia coli; settings: for zone of inhibition at 40 µg/disc: Escherichia coli, read-out: Inhibition zone diameter AS 19, difference between measured diameter and diameter without compound
Protocol: (§1) A] A disk-diffusion test in which the inhibitor was added (40-320 μg) to a disk containing a defined amount of a β-lactam antibiotic (such as 30 μg cefoxitin) was used to evaluate the antimicrobial activity (corresponding to the diameter of the growth inhibition zone, expressed in mm) of the combination when compared of that of the antibiotic alone.
(§2) These tests were performed on isogenic laboratory strains (such as Escherichia coli DH5a or XL-1) producing a defined MBL after its transformation with a pLB-II plasmid derivative (such as pLBII-VIM-2) [Borgianni L., Vandenameele J., Matagne A., Bini L., Bonomo R. A., Frere J. M., Rossolini G. M., Docquier J. D. (2010) Antimicrob. Agents Chemother. 54, 3197-3204] harbouring a cloned gene encoding the functional metallo-β-lactamase. Alternatively, hyperpermeable strains (such as Escherichia coli AS19) were used instead of Escherichia coli DH5α or XL-1.

[3] = system: E. coli LZ2310[pLBII-VIM2] (E. coli K12 ΔnorE ΔmdfA N43 acrA1); assay type: cell-based, Escherichia coli; settings: EDTA 220 μg added to cefoxitin disk (30 μg); cefoxitin alone 14 mm
Protocol: as §1, §2

VIM-4 = VIM-4 (Pseudomonas aeruginosa, UniProt Q8KRJ3); assay: Enzymatic assay for determination of inhibition constants, reporter substrate method, purified VIM-4; assay type: biochemical; settings: at 100 μM (maximal tested concentration);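 further: purified VIM-4 (1-70 nM) in 50 mM HEPES pH 7.5, reporter substrate hydrolysis rate tracked by absorbance change (nitrocefin 482 nm, imipenem or meropenem 300 nm, cefotaxime 260 nm)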
Protocol: as §3, §4

[4] = as listed in Table 2, read-out: Ki on VIM-2
[5] = isolated MBL, competitive inhibition model, read-out: Ki VIM-2

NDM-1, sequence (C7C422 29-270, looked up, species assumed): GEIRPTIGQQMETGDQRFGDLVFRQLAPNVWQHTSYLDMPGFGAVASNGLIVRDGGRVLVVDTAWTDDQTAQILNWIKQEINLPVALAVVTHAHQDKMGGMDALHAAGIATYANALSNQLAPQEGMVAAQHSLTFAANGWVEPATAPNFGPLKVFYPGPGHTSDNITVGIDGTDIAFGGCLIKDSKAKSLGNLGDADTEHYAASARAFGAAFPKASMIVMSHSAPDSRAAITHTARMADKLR
IMP-1, sequence (P52699 19-246, looked up, species assumed): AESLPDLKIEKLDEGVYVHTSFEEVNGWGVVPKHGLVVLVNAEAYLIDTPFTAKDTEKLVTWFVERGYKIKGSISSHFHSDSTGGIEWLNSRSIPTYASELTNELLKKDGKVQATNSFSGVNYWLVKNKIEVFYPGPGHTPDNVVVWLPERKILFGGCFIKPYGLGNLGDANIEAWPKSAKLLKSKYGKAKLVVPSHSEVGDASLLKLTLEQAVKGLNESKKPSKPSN

SMILES | melting point | Ki (VIM-2; [4]) | Ki (VIM-2; [5]) | IC50 at 24 h [1] | Ki (VIM-1) | Ki (IMP-1) | Ki (NDM-1) | zone of inhibition at 40 µg/disc [2] | Inhibition zone diameter AS 19 ([2]; EDTA 220 μg added to cefoxitin disk (30 μg), cefoxitin alone 16 mm) | Inhibition zone diameter LZ 2310 [3] | % inhibition VIM-4 (VIM-4)
O=C(O)c1ccccc1CCn1c(-c2cccs2)n[nH]c1=S [Compound 13, 2-{2-[3-(thiophen-2-yl)-5-sulfanylidene-4,5-dihydro-1H-1,2,4-triazol-4-yl]ethyl}benzoic acid] | 195 to 196 °C | 1 to 10 µM | 1 to 10 µM | > 1200 µM | > 100 µM | > 100 µM | > 100 µM | 4 mm | – | – | –
O=C(O)CN(CCN(CC(=O)O)CC(=O)O)CC(=O)O [EDTA, reference compound] | – | – | – | – | – | – | – | – | 26 mm | 30 mm | –
O=C(O)c1ccccc1CCn1c(-c2ccco2)n[nH]c1=S [Compound 12, 2-{2-[3-(furan-2-yl)-5-sulfanylidene-4,5-dihydro-1H-1,2,4-triazol-4-yl]ethyl}benzoic acid] | 210 to 211 °C | < 1 µM | < 1 µM | > 1200 µM | – | > 100 µM | > 100 µM | 3 mm | – | – | 70% at 100 μM
Cc1ccccc1-c1n[nH]c(=S)n1CCc1ccccc1C(=O)O [Compound 14, 2-{2-[3-(2-methylphenyl)-5-sulfanylidene-4,5-dihydro-1H-1,2,4-triazol-4-yl]ethyl}benzoic acid] | 180 to 181 °C | < 1 µM | < 1 µM | > 1200 µM | 1 to 10 µM | > 100 µM | > 100 µM | 3 mm | – | – | 80% at 100 μM
COc1ccc(O)c(-c2n[nH]c(=S)n2CCc2ccccc2C(=O)O)c1 [Compound 4, 2-{2-[3-(2-hydroxy-5-methoxyphenyl)-5-sulfanylidene-4,5-dihydro-1H-1,2,4-triazol-4-yl]ethyl}benzoic acid] | 88 to 89 °C | < 1 µM | < 1 µM | – | > 100 µM | > 100 µM | > 100 µM | 4 mm | – | – | 80% at 100 μM
